# US7038049B2, “Haloanilino quinazolines and therapeutic use thereof” (Parker Hughes Institute, priority 1999, dated 2006)
# Assays:
# Type in all cases: cell-based
# Details in all cases: 24–36 hours
# [1] = tested on: NALM-6 human leukemia cells; test: MTT cytotoxicity assay, NALM-6
# Procedure: (§1) The cytotoxicity assay of various compounds against human tumor cell lines was performed using the MTT (3-[4,5-dimethylthiazol-2-yl]-2,5-diphenyl tetrazolium bromide) assay (Boehringer Mannheim Corp., Indianapolis, Ind.). Briefly, exponentially growing tumor cells were seeded into a 96-well plate at a density of 2.5×10^4 cells/well and incubated for 36 hours at 37° C. prior to drug exposure. On the day of treatment, culture medium was carefully aspirated from the wells and replaced with fresh medium containing the quinazoline compounds at concentrations ranging from 0.1 to 250 μM. Triplicate wells were used for each treatment.
# (§2) Human cell lines were obtained from American Type Culture Collection (Rockville, Md.) and maintained as a continuous cell line in Dulbecco's modified Eagles' medium supplemented with 10% fetal bovine serum and antibiotics. Cells used in this study include human leukemia cells (NALM-6 and MOLT-3), human breast cancer cells ([…]), human prostate cancer cells (PC3), and human brain tumor cells (U373).
# (§3) The cells were incubated with the various compounds for 24–36 hours at 37° C. in a humidified 5% CO2 atmosphere. To each well, 10 μl of MTT (0.5 mg/ml final concentration) was added and the plates were incubated at 37° C. for 4 hours to allow MTT to form formazan crystals by reacting with metabolically active cells. The formazan crystals were solubilized overnight at 37° C. in a solution containing 10% SDS in 0.01 M HCl. The absorbance of each well was measured in a microplate reader (Labsystems) at 540 nm and a reference wavelength of 690 nm. To translate the OD 540 values into the number of live cells in each well, the OD 540 values were compared to those on standard OD 540—versus—cell number curves generated for each cell line. The percent survival was calculated using the formula:
# (§4) [formula] The IC50 values were calculated by non-linear regression analysis. Detection of Apoptosis
# [2] = tested on: MOLT-3 human leukemia cells; test: MTT cytotoxicity assay, MOLT-3
# Procedure: as §1, §2, §3, §4
# [3] = tested on: BT20 human breast cancer cells; test: MTT cytotoxicity assay, BT20
# Procedure: as §1, §2, §3, §4
# [4] = tested on: U373 human brain tumor cells; test: MTT cytotoxicity assay, U373
# Procedure: as §1, §2, §3, §4
# [5] = Homo sapiens, NALM-6, Table 1, bromo substituted
# [6] = Homo sapiens, MOLT-3, Table 1, bromo substituted
# [7] = Homo sapiens, BT-20, Table 1, bromo substituted
# [8] = Homo sapiens, NALM-6, Table 2, chloro substituted
# [9] = Homo sapiens, MOLT-3, Table 2, chloro substituted
# [10] = Homo sapiens, BT-20, Table 2, chloro substituted
# [11] = Homo sapiens, NALM-6, Table 4, OH substituted
# [12] = Homo sapiens, MOLT-3, Table 4, OH substituted
# [13] = Homo sapiens, BT-20, Table 4, OH substituted
# [14] = Homo sapiens, U373 MG, Table 4, OH substituted
# [15] = Homo sapiens, NALM-6, Table 3, iodide substituted
# [16] = Homo sapiens, MOLT-3, Table 3, iodide substituted
# [17] = Homo sapiens, BT-20, Table 3, iodide substituted
# [18] = Homo sapiens, U373 MG, Table 3, iodide substituted
smiles,measurement,setting,value
"COc1cc2ncnc(Nc3cccc(Br)c3)c2cc1OC [HI-P79, 4-(3′-Bromophenyl)-amino-6,7-dimethoxyquinazoline]",IC50,[1]; [5],142 µM
same,IC50,[2]; [6],195 µM
same,IC50,[3]; [7],202 µM
"COc1cc2ncnc(Nc3cccc(Cl)c3)c2cc1OC [HI-P87, 4-(3′-Chlorophenyl)-amino-6,7-dimethoxyquinazoline]",IC50,[1]; [8],95.9 µM
same,IC50,[2]; [9],> 105 µM
same,IC50,[3]; [10],> 250 µM
"COc1cc2ncnc(Nc3ccc(Br)cc3C(=O)O)c2cc1OC [HI-P88, 4-(4′-Bromo-2′-caboxylphenyl)-amino-6,7-dimethoxyquinazoline]",IC50,[1]; [5],> 250 µM
same,IC50,[2]; [6],> 250 µM
same,IC50,[3]; [7],> 250 µM
"COc1cc2ncnc(Nc3cc(Cl)ccc3O)c2cc1OC [HI-P93, 4-(3′-Chlooro-6′-hydroxylphenyl)amino-6,7-dimethoxyquinazoline]",IC50,[1]; [8],> 250 µM
same,IC50,[1]; [11],> 250 µM
same,IC50,[2]; [9],> 250 µM
same,IC50,[2]; [12],> 250 µM
same,IC50,[3]; [10],> 250 µM
same,IC50,[3]; [13],> 250 µM
same,IC50,[4]; [14],> 250 µM
"COc1cc2ncnc(Nc3cc(Br)c(O)c(Br)c3)c2cc1OC [HI-P97, 4-(3′,5′-Dibromo-4′-hydroxylphenyl)-amino-6,7-dimethoxyquinazoline]",IC50,[1]; [5],> 250 µM
same,IC50,"[1]; Table 4, OH substituted",> 250 µM
same,IC50,[2]; [6],> 250 µM
same,IC50,"[2]; Table 4, OH substituted",> 250 µM
same,IC50,[3]; [7],26.1 µM
same,IC50,[4]; [14],161 µM
"COc1cc2ncnc(Nc3ccc(C)c(Br)c3)c2cc1OC [HI-P111, 4-(3′-Bromo-4′-methylphenyl)-amino-6,7-dimethoxyquinazoline]",IC50,[1]; [5],201 µM
same,IC50,[2]; [6],> 250 µM
same,IC50,[3]; [7],> 250 µM
"COc1cc2ncnc(Nc3ccc(O)c(Br)c3)c2cc1OC [HI-P154, 4-(3′-Bromo-4′-hydroxylphenyl)-amino-6,7-dimethoxyquinazoline]",IC50,[1]; [5],12.5 µM
same,IC50,[2]; [6],9.1 µM
same,IC50,[3]; [7],> 250 µM
same,IC50,"[3]; Table 4, OH substituted",> 250 µM
"COc1cc2ncnc(Nc3ccc4c(c3)Cc3cc(Br)ccc3-4)c2cc1OC [HI-P160, 4-[(7′-Bromofluorene)-2′]-amino-6,7-dimethoxyquinazoline]",IC50,[1]; [5],135 µM
same,IC50,[2]; [6],241 µM
same,IC50,[3]; [7],25.5 µM
"COc1cc2ncnc(C(=O)c3cccc(Br)c3)c2cc1OC [HI-P164, 4-(3′-Bromobenzoyl)-6,7-dimethoxyquinazoline]",IC50,[1]; [5],> 250 µM
same,IC50,[2]; [6],> 250 µM
same,IC50,[3]; [7],39.2 µM
"COc1cc2ncnc(Nc3cc(Cl)c(O)c(Cl)c3)c2cc1OC [HI-P189, 4-(4′-Hydroxyl-3′,5′-dichlorophenyl)amino-6,7-dimethoxyquinazoline]",IC50,[1]; [8],> 250 µM
same,IC50,[1]; [11],> 250 µM
same,IC50,[2]; [9],> 250 µM
same,IC50,[2]; [12],> 250 µM
same,IC50,[3]; [10],> 250 µM
same,IC50,[3]; [13],> 250 µM
same,IC50,[4]; [14],> 250 µM
"COc1cc2ncnc(Nc3ccc(Br)cc3CO)c2cc1OC [HI-P190, 4-(4′-Bromo-6′-hydroxymethylphenyl)-amino-6,7-dimethoxyquinazoline]",IC50,[1]; [5],> 250 µM
same,IC50,[1]; [11],> 250 µM
same,IC50,[2]; [6],> 250 µM
same,IC50,[2]; [12],> 250 µM
same,IC50,[3]; [7],> 250 µM
same,IC50,[3]; [13],> 250 µM
same,IC50,[4]; [14],> 250 µM
"COc1cc2ncnc(Nc3ccc(O)cc3O)c2cc1OC [HI-P192, 4-(2′,4′-Dihydroxyphenyl)-amino-6,7-dimethoxyquinazoline]",IC50,[1]; [11],> 250 µM
same,IC50,[2]; [12],> 250 µM
same,IC50,[3]; [13],> 250 µM
same,IC50,[4]; [14],> 250 µM
"COc1cc2ncnc(Nc3ccc(O)c(Cl)c3)c2cc1OC [HI-P197, 4-(3′-Chloro-4′-hydroxylphenyl)-amino-6,7-dimethoxyquinazoline]",IC50,[1]; [8],39.3 µM
same,IC50,[1]; [11],68.5 µM
same,IC50,[2]; [9],68 µM
same,IC50,[2]; [12],63.8 µM
same,IC50,[3]; [10],137 µM
same,IC50,[3]; [13],71.5 µM
same,IC50,[4]; [14],> 250 µM
"COc1cc2ncnc(Nc3ccc(C)c(Br)c3Br)c2cc1OC [HI-P210, 4-(2′,3′-Dibromo-4′-methylphenyl)-amino-6,7-dimethoxyquinazoline]",IC50,[1]; [5],> 250 µM
same,IC50,[2]; [6],> 250 µM
same,IC50,[3]; [7],> 250 µM
"COc1cc2ncnc(Nc3cc(Br)c(C)cc3Br)c2cc1OC [HI-P211, 4-(2′,5′-Dibromo-4′-methylphenyl)-amino-6,7-dimethoxyquinazoline]",IC50,[1]; [5],> 250 µM
same,IC50,[2]; [6],> 250 µM
same,IC50,[3]; [7],> 250 µM
"COc1cc2ncnc(Nc3cc(Br)c(C)c(Br)c3)c2cc1OC [HI-P212, 4-(3′,5′-Dibromo-4′-methylphenyl)-amino-6,7-dimethoxyquinazoline]",IC50,[1]; [5],52.7 µM
same,IC50,[2]; [6],54.5 µM
same,IC50,[3]; [7],> 250 µM
"COc1cc2ncnc(Nc3c(Br)cc(Br)cc3Br)c2cc1OC [HI-P222, 4-(2′, 4′, 6′-Tribromophenyl)amino-6,7-dimethoxyquinazoline]",IC50,[1]; [5],34 µM
same,IC50,[2]; [6],48.3 µM
same,IC50,[3]; [7],> 250 µM
COc1cc2ncnc(Nc3ccc(C)cc3)c2cc1OC [HI-P234],IC50,[1]; [5],> 250 µM
same,IC50,[2]; [6],> 250 µM
same,IC50,[3]; [7],> 250 µM
"COc1cc2ncnc(Nc3c(Br)cc(C)cc3Br)c2cc1OC [HI-P241, 4-(2′,6′-Dibromo-4′-methylphenyl)-amino-6,7-dimethoxyquinazoline]",IC50,[1]; [5],> 250 µM
same,IC50,[2]; [6],> 250 µM
same,IC50,[3]; [7],> 250 µM
COc1cc2ncnc(Nc3ccccc3)c2cc1OC [HI-P258],IC50,[1]; [5],> 250 µM
same,IC50,[2]; [6],> 250 µM
same,IC50,[3]; [7],> 250 µM
"COc1cc2ncnc(Nc3ccc(Br)cc3)c2cc1OC [HI-P260, 4-(4′-Bromophenyl)-amino-6,7-dimethoxyquinazoline]",IC50,[1]; [5],32.4 µM
same,IC50,[2]; [6],51.3 µM
same,IC50,[3]; [7],82.1 µM
"COc1cc2ncnc(Nc3ccccc3Br)c2cc1OC [HI-P261, 4-(2′-Bromophenyl)-amino-6,7-dimethoxyquinazoline]",IC50,[1]; [5],72.6 µM
same,IC50,[2]; [6],148 µM
same,IC50,[3]; [7],219 µM
"COc1cc2ncnc(Nc3c(Br)cccc3Br)c2cc1OC [HI-P262, 4-(2′,6′-Dibromophenyl)-amino-6,7-dimethoxyquinazoline]",IC50,[1]; [5],> 250 µM
same,IC50,[2]; [6],> 250 µM
same,IC50,[3]; [7],> 250 µM
"COc1cc2ncnc(Nc3ccccc3Cl)c2cc1OC [HI-P268, 4-(2′-Chlorophenyl)-amino-6,7-dimethoxyquinazoline]",IC50,[1]; [8],215 µM
same,IC50,[2]; [9],227 µM
same,IC50,[3]; [10],122 µM
"COc1cc2ncnc(Nc3ccc(Cl)cc3)c2cc1OC [HI-P269, 4-(4′-Chlorophenyl)-amino-6,7-dimethoxyquinazoline]",IC50,[1]; [8],> 250 µM
same,IC50,[2]; [9],> 250 µM
same,IC50,[3]; [10],> 250 µM
"COc1cc2ncnc(Nc3ccccc3I)c2cc1OC [HI-P270, 4-(2′-Iodophenyl)-amino-6,7-dimethoxyquinazoline]",IC50,[1]; [15],> 250 µM
same,IC50,[2]; [16],78.9 µM
same,IC50,[3]; [17],> 250 µM
same,IC50,[4]; [18],> 250 µM
"COc1cc2ncnc(Nc3cccc(I)c3)c2cc1OC [HI-P271, 4-(3′-Iodophenyl)-amino-6,7-dimethoxyquinazoline]",IC50,[1]; [15],6.1 µM
same,IC50,[2]; [16],9.6 µM
same,IC50,[3]; [17],> 250 µM
same,IC50,[4]; [18],> 250 µM
"COc1cc2ncnc(Nc3cc(I)c(O)c(I)c3)c2cc1OC [HI-P294, 4-(4′-Hydroxy-3,5-diiodophenyl)-amino-6,7-dimethoxy-quinazoline]",IC50,[1]; [15],> 250 µM
same,IC50,[1]; [11],> 250 µM
same,IC50,[2]; [16],> 250 µM
same,IC50,[2]; [12],> 250 µM
same,IC50,[3]; [17],> 250 µM
same,IC50,[3]; [13],> 250 µM
same,IC50,[4]; [18],> 250 µM
same,IC50,"[4]; Table 4, OH substituted",> 250 µM
"COc1cc2ncnc(Nc3ccc(O)c(I)c3)c2cc1OC [HI-P299, 4-(4′-Hydroxy-3′-iodophenyl)-amino-6,7-dimethoxyquinazoline]",IC50,[1]; [15],15.4 µM
same,IC50,[1]; [11],66.3 µM
same,IC50,[2]; [16],60.1 µM
same,IC50,[2]; [12],51.2 µM
same,IC50,[3]; [17],> 250 µM
same,IC50,[3]; [13],> 250 µM
same,IC50,[4]; [18],> 250 µM
same,IC50,"[4]; Table 4, OH substituted",> 250 µM
"COc1cc2ncnc(Nc3ccc(I)cc3)c2cc1OC [HI-P300, 4-(4′-Iodophenyl)-amino-6,7-dimethoxyquinazoline]",IC50,[1]; [15],58 µM
same,IC50,[2]; [16],59.1 µM
same,IC50,[3]; [17],72.6 µM
same,IC50,[4]; [18],116 µM
"COc1cc2ncnc(Nc3ccc(Cl)c4ccccc34)c2cc1OC [HI-P415, 4-(4′-Chloronaphthy-1′)-amino-6,7-dimethoxyquinazoline]",IC50,[1]; [8],67.9 µM
same,IC50,[2]; [9],> 250 µM
same,IC50,[3]; [10],38.1 µM
